Laboratory results: the supplement of paper PMC10307832

Experiments:
Test in all cases: relative viability (nuclei count vs DMSO), 5 days (fraction); higher = more cells survive
Carboplatin + Luminespib = compound: C1CC(C1)(C(=O)O)C(=O)O.[NH2-].[NH2-].[Pt+2] [Carboplatin] + CCNC(=O)c1noc(-c2cc(C(C)C)c(O)cc2O)c1-c1ccc(CN2CCOCC2)cc1 [Luminespib] (partner 0.01 µM)
Outline: (§1)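 Relative viability was taken as the ratio of nuclei in treated wells to nuclei in vehicle wells. Lung cancer cell lines in 1536-well plates received compounds by pin tool one day after seeding, either one drug alone or a fixed anchor-drug dose plus five library-drug doses (not always all listed) in √10 steps. Nuclei were counted on 4× images after 5 days of treatment, and values are medians of duplicate plates.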

Carboplatin + Dasatinib = compound: C1CC(C1)(C(=O)O)C(=O)O.[NH2-].[NH2-].[Pt+2] [Carboplatin] + Cc1nc(Nc2ncc(C(=O)Nc3c(C)cccc3Cl)s2)cc(N2CCN(CCO)CC2)n1 [Dasatinib] (partner 0.075 µM)
Outline: as §1

GSK126 + OSI-027 = compound: CC[C@H](C)N1C=C(C2=C(C=C(C=C21)C3=CN=C(C=C3)N4CCNCC4)C(=O)NCC5=C(C=C(NC5=O)C)C)C [GSK126] + COc1cccc2cc(-c3nc([C@H]4CC[C@H](C(=O)O)CC4)n4ncnc(N)c34)[nH]c12 [OSI-027] (partner 0.5 µM)
Outline: as §1

MLN4924 + Vorinostat = compound: NS(=O)(=O)OC[C@@H]1C[C@@H](n2ccc3c(N[C@H]4CCc5ccccc54)ncnc32)C[C@@H]1O [MLN4924] + O=C(CCCCCCC(=O)Nc1ccccc1)NO [Vorinostat] (partner 1 µM)
Outline: as §1

Cell Line	relative viability (Carboplatin + Luminespib; first compound 0.08 µM)	relative viability (Carboplatin + Luminespib; first compound 0.253 µM)	relative viability (Carboplatin + Luminespib; first compound 0.8 µM)	relative viability (Carboplatin + Luminespib; first compound 2.53 µM)	relative viability (Carboplatin + Luminespib; first compound 8 µM)	relative viability (Carboplatin + Dasatinib; first compound 0.08 µM)	relative viability (Carboplatin + Dasatinib; first compound 0.253 µM)	relative viability (Carboplatin + Dasatinib; first compound 0.8 µM)	relative viability (Carboplatin + Dasatinib; first compound 2.53 µM)	relative viability (Carboplatin + Dasatinib; first compound 8 µM)	relative viability (GSK126 + OSI-027; first compound 0.08 µM)	relative viability (GSK126 + OSI-027; first compound 0.253 µM)	relative viability (GSK126 + OSI-027; first compound 0.8 µM)	relative viability (GSK126 + OSI-027; first compound 2.53 µM)	relative viability (GSK126 + OSI-027; first compound 8 µM)	relative viability (MLN4924 + Vorinostat; first compound 0.04 µM)	relative viability (MLN4924 + Vorinostat; first compound 0.1265 µM)	relative viability (MLN4924 + Vorinostat; first compound 0.4 µM)	relative viability (MLN4924 + Vorinostat; first compound 1.265 µM)	relative viability (MLN4924 + Vorinostat; first compound 4 µM)
201T	1.02	1.06	1.1	0.988	1	0.575	0.571	0.569	0.487	0.576	0.822	0.772	0.736	0.865	0.759	0.991	0.898	0.406	0.277	0.17
A-427	0.934	0.928	0.928	0.803	0.976	0.728	0.772	0.716	0.704	0.657	0.491	0.515	0.43	0.409	0.456	0.546	0.403	0.309	0.231	0.237
ABC-1	1.17	0.704	0.451	0.435	0.273	0.654	0.639	0.522	0.546	0.458	0.462	0.525	0.532	0.492	0.539	0.946	1.15	0.572	0.279	0.363
BEN	0.462	0.3	0.257	0.311	0.266	0.339	0.296	0.284	0.319	0.228	0.324	0.349	0.281	0.288	0.287	0.434	0.463	0.431	0.268	0.238
CAL-12T	0.324	0.334	0.317	0.579	0.282	0.375	0.502	0.419	0.521	0.372	0.78	0.576	0.767	0.67	0.819	0.792	0.921	0.409	0.259	0.144
COR-L23	0.617	0.678	0.568	0.254	0.163	0.51	0.536	0.436	0.373	0.216	1	0.725	0.645	0.824	0.694	0.414	0.34	0.195	0.0783	0.0885
COR-L 105	1.04	0.851	0.677	0.667	0.648	0.364	0.351	0.37	0.293	0.297	0.694	0.666	0.616	0.72	0.771	0.71	0.709	0.353	0.232	0.403
ChaGo-K-1	0.774	0.589	0.399	0.398	0.297	0.559	0.61	0.612	0.477	0.309	0.609	0.611	0.562	0.545	0.544	0.681	0.593	0.299	0.167	0.174
EKVX	0.903	0.864	–	0.695	0.727	0.603	0.582	0.48	0.446	0.495	0.753	0.679	0.669	0.822	0.781	0.632	0.276	0.41	0.201	0.217
EMC-BAC-2	1.22	1.15	1.15	1	0.751	0.327	0.343	0.305	0.271	0.281	0.398	0.381	0.397	0.379	0.373	0.39	0.392	0.236	0.179	0.279
EPLC-272H	0.308	0.297	0.266	0.387	0.226	0.455	0.342	0.326	0.365	0.399	0.295	0.309	0.318	0.353	0.303	0.195	0.184	0.098	0.0963	0.144
H3255	1.02	1.03	0.964	0.772	0.704	0.367	0.416	0.418	0.415	0.334	0.573	0.568	0.578	0.666	0.583	0.668	0.642	0.334	0.239	0.304
HARA	0.847	0.756	0.701	0.573	0.752	0.205	0.252	0.209	0.213	0.302	0.543	0.541	0.476	0.466	0.392	0.48	0.144	0.174	0.0809	0.0682
HCC-15	0.434	0.302	0.177	0.306	0.42	0.69	0.645	0.621	0.591	0.407	0.752	0.687	0.696	0.713	0.695	0.643	0.444	0.289	0.112	0.106
HCC-44	1.16	0.755	0.406	0.305	0.31	–	–	–	–	–	0.623	0.624	0.595	0.562	0.706	1.04	0.731	0.726	0.415	0.376
HCC-78	–	–	–	–	–	0.576	0.425	0.372	0.416	0.489	0.359	0.379	0.384	0.373	0.396	0.442	0.309	0.5	0.245	0.225
HCC-366	–	–	–	–	–	0.609	0.619	0.624	0.594	0.403	1.2	0.754	0.868	0.927	0.847	0.327	0.348	0.322	0.0422	0.0392
